The test system of test [1] is H-Ras-V12 transformed p53−/− MEFs. The experiment in a line: Tumor formation after implantation of chemotherapy-treated cells in nude mice. The class given is in vivo. The settings on record: fifteen days; for tumor formation: MAPKAP kinase-2 siRNA-transfected cells pre-treated with 1 μM cisplatin or 0.1 μM doxorubicin before implantation; for size and weight of tumors relative to tumors formed by untreated cells: control siRNA-transfected cells pre-treated with 1 μM cisplatin or 0.1 μM doxorubicin before implantation. The protocol: To establish whether the absence of MAPKAP kinase-2 could also enhance the anti-tumorigenic effect of cisplatin or doxorubicin in vivo, we introduced control or MAPKAP kinase-2 siRNAs into H-Ras-V12 transformed p53^−/− MEFs, treated them with either vehicle alone, 1 μM cisplatin or 0.1 μM doxorubicin, and then implanted them into nude mice. Each animal received two injections of MAPKAP kinase-2 siRNA-transfected cells (left flank), and two injections of control siRNA transfected cells (right flank), and tumor formation was assessed at fifteen days. […] In general, the size of the tumors resulting from injection of MAPKAP kinase-2 depleted cells was larger than that from control siRNA-transfected cells (FIGS. 17A, 17B, and 17D).
Murine tumor models. H-Ras-V 12-transformed p53^−/− MEFs were used for in vivo tumor formation assays. Cells were transfected with siRNA oligonucleotides against GFP or murine MAPKAP kinase-2 for forty-eight hours, then mock treated or incubated with 0.1 μM doxorubicin or 1 μM cisplatin for eight hours, washed three times in growth media, three times in PBS, trypsinized, and resuspended at a concentration of 10^7 cells/ml in PBS. 10^6 cells were subcutaneously injected into the flanks of nude mice (Ncr nu/nu, Taconic).

Another test deals with U2OS cells. In words: FACS cell cycle analysis (PI, phospho-histone H3) in U2OS cells. The test is classed as cell-based, human. The settings on record: MAPKAP kinase-2 depleted U2OS cells; 10 μM drug, nocodazole added three hours later, thirty hours. The protocol: Asynchronous MAPKAP kinase-2 or luciferase shRNA knockdown cells were mock treated or exposed to doxorubicin for thirty hours, and cell cycle progression was monitored by FACS. In one set of experiments, the spindle poison nocodazole was added to the media three hours after addition of doxorubicin, to cause any cells progressing through the cell cycle to arrest in mitosis. DNA content was monitored by PI staining; phospho-histone-H3 staining was used as an indicator of mitotic entry. As shown in the left panels of FIG. 14A, treatment of control luciferase shRNA knockdown cells with doxorubicin led to the accumulation of cells with 4N DNA content, and a lack of phospho-histone-H3 staining in either the absence or presence of nocodazole. The cells expressing the luciferase shRNAs behaved identically to the untransfected doxorubicin-treated control U2OS cell population (FIG. 24B), with the prominent 4N DNA component and the absence of phospho-histone-H3 staining indicative of an intact G2/M checkpoint.
In contrast to the G2/M checkpoint response observed in doxorubicin-treated cells, treatment with the DNA intra-strand cross-linker cisplatin caused U2OS cells to predominantly accumulate in the G1 and S phases of the cell cycle over the subsequent thirty hours (FIG. 24C). RNA interference was used to investigate the role of MAPKAP kinase-2 in this process. […] Strikingly, when nocodazole was added three hours following cisplatin addition, the MAPKAP kinase-2 depleted cells accumulated in a 4N DNA containing peak with ˜42% of the cells staining strongly for phospho-histone H3. Identical results were obtained in cells treated with a second unrelated siRNA sequence against MAPKAP kinase-2.
FACS analysis. UV irradiation was performed at 254 nm (UV-C) using a Stratalinker 2400 (Stratagene). U2OS cells were fixed in 70% ethanol overnight at −20° C., permeabilized with PBS containing 0.2% Triton X-100 for twenty minutes at 4° C., blocked with 2% FBS in PBS, and incubated with 1 μg of anti-phospho-histone H3 per 10^6 cells for sixty minutes on ice. […]

In a further test the test system is p38 MAPK/MK2 pathway. In words: Immunoblot of p38 MAPK/MK2 activation after DNA-damaging drugs in U2OS cells. The class given is cell-based, human. The note with it: U2OS cells, 10 μM drug. As for the experimental part: 14-3-3 pull-down assays, immunoblotting, and immunofluorescence. U2OS cells were lysed in lysis buffer: 50 mM Tris/HCl, pH7.8, 150 mM NaCl, 1.0% NP-40, 5 mM EDTA, 2 mM DTT, 8 μg/ml pepstatin, 8 μg/ml aprotinin, 8 μg/ml leupeptin, 2 mM Na3VO4, 10 mM NaF, 1 μM microcystin for twenty minutes at 4° C. Clarified lysates (0.5-2 mg protein) were incubated with 20 μL glutathione beads or amylose beads containing 10-20 μg 14-3-3-GST or 14-3-3-MBP, respectively, for 120 minutes at 4° C. Following washing, lysates and bead-bound proteins were analysed by SDS-PAGE, followed by transfer to PVDF membranes and immunoblotted with the indicated antibodies. For immunofluorescence experiments, U2OS cells were seeded onto 18 mm^2 coverslips, irradiated or mock-treated, fixed, extracted, and immunostained as described previously (Clapperton et al., Nat. Struct. Mol. Biol., 11:512-518, 2004).
On the technique in general: In western blotting, separated proteins are transferred to a membrane and probed.

Take `N.N.[Cl][Pt][Cl]` [cisplatin]: in test [1], the tumor formation entry was “completely eliminated the formation of tumors”; the “size and weight of tumors relative to tumors formed by untreated cells” value is recorded as roughly 35%. The “cells staining positively for phospho-histone H3” value with U2OS cells is given as roughly 42%. Further, the “time to MK2 activation (reduction in electrophoretic mobility, pThr-344)” value with p38 MAPK/MK2 pathway is on record as “Within one hour”.

`COc1cccc2c1C(=O)c1c(O)c3c(c(O)c1C2=O)C[C@@](O)(C(=O)CO)C[C@@H]3O[C@H]1C[C@H](N)[C@H](O)[C@H](C)O1` [doxorubicin]: in test [1], the tumor formation entry is reported as “completely eliminated the formation of tumors”; the “size and weight of tumors relative to tumors formed by untreated cells” value is roughly 35%. Further, in the test with U2OS cells, the “cells staining positively for phospho-histone H3” value is listed as 36.3%. In the test on p38 MAPK/MK2 pathway, the “time to MK2 activation (reduction in electrophoretic mobility, pThr-344)” value is “Within one hour”.

The record behind these values is patent publication US8440610B2, “Mapkap kinase-2 as a specific target for blocking proliferation of P53-defective cells” (Massachusetts Institute of Technology, priority 2004, dated 2013).
